According to patent US6497872B1, “Neural transplantation using proliferated multipotent neural stem cells and their progeny” (NeuroSpheres Holdings Ltd., priority 1991, dated 2002):

Key:
[1] = tested on: EGF-generated neurospheres; assay: Effect of growth factors on neurosphere differentiation, immunocytochemistry (Example 8); format: cell-based, mouse; settings: 20 ng/ml
Description: Six to 8 days after the first passage, the neurospheres were removed and centrifuged at 400 r.p.m. The EGF-containing supernatant was removed and the pellet suspended in EGF-free complete medium containing 1% FBS. Neurospheres (approximately 0.5-1.0×10^6 cells/well) were plated on poly-L-ornithine-coated (15 μg/ml) glass coverslips in 24 well Nuclon (1.0 ml/well) culture dishes. After 24 hours in culture, the coverslips were transferred to 12 well (Costar) culture dishes containing complete medium containing 0.5% FBS. The medium was changed every 4-7 days. This differentiation procedure is referred to as the “Rapid Differentiation Paradigm” or RDP.
Six to 8 days after the first passage, the neurospheres were removed and centrifuged at 400 r.p.m. The EGF-containing media was removed and the pellet was suspended in EGF-free complete medium containing 1% FBS. The neurospheres were mechanically dissociated into single cells with a fire-polished Pasteur pipette and centrifuged at 800 r.p.m. for 5 minutes. Between 0.5×10^6 and 1.0×10^6 cells were plated on poly-L-ornithine-coated (15 μg/ml) glass coverslips in 24 well Nuclon (1.0 ml/well) culture dishes. The EGF-free culture medium containing 1% FBS was changed every 4-7 days.
Neurospheres were washed free of EGF by serial transfers through changes of EGF-free medium. A single neurosphere was plated onto poly-L-ornithine-coated (15 μg/ml) glass coverslips in a 24-well plate. The culture medium used was complete medium with or without I % FBS. The medium was changed every 4-7 days.
Neurospheres were washed free of EGF by serial transfers through changes of EGF-free medium. A single neurosphere was mechanically dissociated in a 0.5 ml Eppendorf centrifuge tube and all the cells were plated onto a 35 mm culture dish. Complete medium was used with or without 1% FBS.
The effects of CNTF, FGF-2, BDNF, and retinoic acid on neurosphere differentiation were tested using the differentiation paradigms set forth in Example 7.
The effect of CNTF was assayed in paradigms 1 and 3. For both paradigms, CNTF was added either at the beginning of the experiment at a concentration of 10 ng/ml or daily at a concentration of 1 ng/ml.
Three different antibodies directed against 04, galactocerebroside (GalC) and MBP were used to study the effect of CNTF on the oligodendrocytes of paradigm 1. CNTF had no effect on the number of 04(+) cells, but there was an increase in the number of GalC(+) and MBP(+) cells compared with the control. Thus it appears that CNTF plays a role in the maturation of oligodendrocytes.
The effect of FGF-2 was tested using paradigms 2 and 4. In paradigm 2, 20 ng/ml of FGF-2 was added at the beginning of the experiment and cells were stained 7 days later. FGF-2 increased the number of GFAP(+) cells and the number of NSE(+) cells.
In paradigm 4, 20 ng/ml of FGF-2 was added at the beginning of the experiment and assayed 7-10 days later. […] It induced two different cell types to divide, neuroblasts and bipotential progenitor cells. The neuroblast produced, on average, 6 neurons while the bipotential cell produced approximately 6 neurons and a number of astrocytes.

Primary striatal cells = assay: Striatum-derived neurosphere proliferation in response to proliferative and regulatory factors (Example 43, Paradigm 1); format: cell-based, mouse
Description: Paradigm 1: Primary striatal cells prepared as outlined in Example 1 were suspended in Complete Medium, without growth factors, plated in 96 well plates (Nunclon) and incubated as described in Example 4. Following a one hour incubation period, a specific proliferative factor, or a combination of proliferative factors including EGF, or bFGF (recombinant human bFGF: R & D Systems), or a combination of EGF and bFGF, or EGF plus FGF plus heparan sulfate (Sigma), or bFGF plus heparan sulfate made up in Complete Medium at a concentration of 20 ng/ml for each of the growth factors and 2 μg/ml for heparan sulfate), was added to each well of the plate.
Retinoic acid (Sigma) was added at a concentration of 10^−6 M. 10 μl of one of these regulatory factor-containing solutions was added to each proliferative factor-containing well of the 96 well plates. Control wells, containing only proliferative factors, were also prepared. […]
IL-2, IL-6, IL-8, MIP-1∂, MIP-1β, MIP-2, TNFα and EGF additions were repeated every second day, CNTF which was added each day and retinoic acid, NGF and PDGF were added only once, at the beginning of the experiment. The cells were incubated for a period of 10-12 days. The number of neurospheres in each well was counted and the resulting counts tabulated using Cricket Graph III. Other relevant information regarding sphere size and shape were also noted.

[2] = paradigm 2, stained 7 days later

For “bFGF: basic fibroblast growth factor, recombinant human (R & D Systems)”, the “number of GFAP(+) cells” value [1, 2] was “increased”, the “number of NSE(+) cells” value [1, 2] was “increased” and the “neurons produced per bipotential cell” value ([1]; paradigm 4) was “approximately 6 neurons”. The “neurons produced per neuroblast, on average” value ([1]; paradigm 4) was 6 neurons, the “proliferation of neural stem cell progeny generated by the EGF-responsive stem cell” value ([1]; paradigm 4, 7-10 days) was “induced the proliferation” and the “size of neurospheres relative to those generated in the presence of EGF” value (Primary striatal cells; bFGF alone) was “about 20%”. For the same substance, the “neurospheres generated per well” value (Primary striatal cells; proliferative factor alone, 20 ng/ml) was “approximately 70 neurospheres per well”.
